Source: patent US11707539B2, “FAP-targeted radiopharmaceuticals and imaging agents, and uses related thereto” (Trustees of Tufts College, priority 2020, dated 2023)

Tested on: HEK-mFAP tumor-bearing mice
Assay: 68Ga biodistribution, gamma counting after 50 min uptake
Type: in vivo, mouse
Experimental: Part 2 Biodistribution. The aim of the study is to assess ^68Ga-6555 biodistribution in HEK-mFAP tumor-bearing mice. HEK-mFAP tumor-bearing mice were used for the study (N=3). The mice were injected with ˜8 MBq (7.3-8.5 MBq range) of ^68Ga-6555 (prepared as per Example 20; IV through the tail vein using a catheter mounted with a 30 Ga needle). After 50 min uptake time (injection was performed under anesthasia using isoflurane inhalant, and stayed under anesthesia for 50 min), the mice were euthanized (with CO2) and tissues were collected (blood via cardiac puncture, heart, lungs, liver, spleen, pancreas, stomach, small intestine, kidney, muscle, femur, bone, skin, brain, tumor). After excision, the tissue samples were counted for gallium-68 radioactivity on a Cobra-II Auto-Gamma counter (Packard Instruments, Meriden, CTA), weighted, and data were expressed as % injected dose per gram (% ID/g).
Conducted as per Example 24 using ^68Ga-6952 prepared as per Example 22.
Biodistribution. The mice were injected with ˜8.6 MBq (7.6-10.0 MBq range). The majority of activity was located in the tumor (average % ID/g of 8.8). The kidney has the next largest amount of activity (average % ID/g of 2.18). […]

Q: What does the source list for `C[C@@H](NC(=O)c1ccc(CNC(=O)CN2CCN3CCN4CCN(CC2)CC(=O)[O][Ga]([O]C(=O)C3)[O]C(=O)C4)cc1)C(=O)N1CCC[C@H]1B(O)O` [[^68Ga]-6555]?
A: uptake in all other selected tissues (50 min uptake time, IV): low level of uptake comparable to the muscle; % ID/g Blood, AVERAGE (Blood, 50 min uptake after IV injection, average of N=3 mice): 0.57 % ID/g; % ID/g Blood, mouse #002 (Blood, 50 min uptake, individual mouse #002): 0.67 % ID/g; % ID/g Blood, mouse #005 (Blood, 50 min uptake, individual mouse #005): 0.38 % ID/g; % ID/g Blood, mouse #009 (Blood, 50 min uptake, individual mouse #009): 0.64 % ID/g; % ID/g Bone (femur), AVERAGE (Bone (femur), 50 min uptake after IV injection, average of N=3 mice): 0.33 % ID/g; % ID/g Bone (femur), mouse #002 (Bone (femur), 50 min uptake, individual mouse #002): 0.31 % ID/g; % ID/g Bone (femur), mouse #005 (Bone (femur), 50 min uptake, individual mouse #005): 0.50 % ID/g; % ID/g Bone (femur), mouse #009 (Bone (femur), 50 min uptake, individual mouse #009): 0.20 % ID/g; % ID/g Brain, AVERAGE (Brain, 50 min uptake after IV injection, average of N=3 mice): 0.07 % ID/g; % ID/g Brain, mouse #002 (Brain, 50 min uptake, individual mouse #002): 0.03 % ID/g; % ID/g Brain, mouse #005 (Brain, 50 min uptake, individual mouse #005): 0.07 % ID/g; % ID/g Brain, mouse #009 (Brain, 50 min uptake, individual mouse #009): 0.10 % ID/g; % ID/g Heart, AVERAGE (Heart, 50 min uptake after IV injection, average of N=3 mice): 0.34 % ID/g; % ID/g Heart, mouse #002 (Heart, 50 min uptake, individual mouse #002): 0.41 % ID/g; % ID/g Heart, mouse #005 (Heart, 50 min uptake, individual mouse #005): 0.17 % ID/g; % ID/g Heart, mouse #009 (Heart, 50 min uptake, individual mouse #009): 0.43 % ID/g; % ID/g Kidneys, AVERAGE (Kidneys, 50 min uptake after IV injection, average of N=3 mice): 1.37 % ID/g; % ID/g Kidneys, mouse #002 (Kidneys, 50 min uptake, individual mouse #002): 1.50 % ID/g; % ID/g Kidneys, mouse #005 (Kidneys, 50 min uptake, individual mouse #005): 1.03 % ID/g; % ID/g Kidneys, mouse #009 (Kidneys, 50 min uptake, individual mouse #009): 1.58 % ID/g; % ID/g Liver, AVERAGE (Liver, 50 min uptake after IV injection, average of N=3 mice): 1.01 % ID/g; % ID/g Liver, mouse #002 (Liver, 50 min uptake, individual mouse #002): 1.00 % ID/g; % ID/g Liver, mouse #005 (Liver, 50 min uptake, individual mouse #005): 0.79 % ID/g; % ID/g Liver, mouse #009 (Liver, 50 min uptake, individual mouse #009): 1.23 % ID/g; % ID/g Lungs, AVERAGE (Lungs, 50 min uptake after IV injection, average of N=3 mice): 0.56 % ID/g; % ID/g Lungs, mouse #002 (Lungs, 50 min uptake, individual mouse #002): 0.62 % ID/g; % ID/g Lungs, mouse #005 (Lungs, 50 min uptake, individual mouse #005): 0.39 % ID/g; % ID/g Lungs, mouse #009 (Lungs, 50 min uptake, individual mouse #009): 0.67 % ID/g; % ID/g Muscle, AVERAGE (Muscle, 50 min uptake after IV injection, average of N=3 mice): 0.74 % ID/g; % ID/g Muscle, mouse #002 (Muscle, 50 min uptake, individual mouse #002): 0.09 % ID/g; % ID/g Muscle, mouse #005 (Muscle, 50 min uptake, individual mouse #005): 0.21 % ID/g; % ID/g Muscle, mouse #009 (Muscle, 50 min uptake, individual mouse #009): 1.92 % ID/g; % ID/g Pancreas, AVERAGE (Pancreas, 50 min uptake after IV injection, average of N=3 mice): 0.92 % ID/g; % ID/g Pancreas, mouse #002 (Pancreas, 50 min uptake, individual mouse #002): 1.41 % ID/g; % ID/g Pancreas, mouse #005 (Pancreas, 50 min uptake, individual mouse #005): 0.93 % ID/g; % ID/g Pancreas, mouse #009 (Pancreas, 50 min uptake, individual mouse #009): 0.42 % ID/g; % ID/g Skin, AVERAGE (Skin, 50 min uptake after IV injection, average of N=3 mice): 0.28 % ID/g; % ID/g Skin, mouse #002 (Skin, 50 min uptake, individual mouse #002): 0.31 % ID/g; % ID/g Skin, mouse #005 (Skin, 50 min uptake, individual mouse #005): 0.27 % ID/g; % ID/g Skin, mouse #009 (Skin, 50 min uptake, individual mouse #009): 0.25 % ID/g; % ID/g Small intestine, AVERAGE (Small intestine, 50 min uptake after IV injection, average of N=3 mice): 0.31 % ID/g; % ID/g Small intestine, mouse #002 (Small intestine, 50 min uptake, individual mouse #002): 0.39 % ID/g; % ID/g Small intestine, mouse #005 (Small intestine, 50 min uptake, individual mouse #005): 0.19 % ID/g; % ID/g Small intestine, mouse #009 (Small intestine, 50 min uptake, individual mouse #009): 0.35 % ID/g; % ID/g Spleen, AVERAGE (Spleen, 50 min uptake after IV injection, average of N=3 mice): 0.77 % ID/g; % ID/g Spleen, mouse #002 (Spleen, 50 min uptake, individual mouse #002): 0.23 % ID/g; % ID/g Spleen, mouse #005 (Spleen, 50 min uptake, individual mouse #005): 0.74 % ID/g; % ID/g Spleen, mouse #009 (Spleen, 50 min uptake, individual mouse #009): 1.34 % ID/g; % ID/g Stomach, AVERAGE (Stomach, 50 min uptake after IV injection, average of N=3 mice): 0.20 % ID/g; % ID/g Stomach, mouse #002 (Stomach, 50 min uptake, individual mouse #002): 0.07 % ID/g; % ID/g Stomach, mouse #005 (Stomach, 50 min uptake, individual mouse #005): 0.21 % ID/g; % ID/g Stomach, mouse #009 (Stomach, 50 min uptake, individual mouse #009): 0.32 % ID/g; % ID/g Tumor, AVERAGE (Tumor (HEK-mFAP), 50 min uptake after IV injection, average of N=3 mice): 10.10 % ID/g; % ID/g Tumor, mouse #002 (Tumor (HEK-mFAP), 50 min uptake, individual mouse #002): 10.01 % ID/g; % ID/g Tumor, mouse #005 (Tumor (HEK-mFAP), 50 min uptake, individual mouse #005): 8.47 % ID/g; % ID/g Tumor, mouse #009 (Tumor (HEK-mFAP), 50 min uptake, individual mouse #009): 11.83 % ID/g; average % ID/g (kidney, 50 min uptake time, IV): 1.37 % ID/g; average % ID/g (tumor, 50 min uptake time, IV): 10.1 % ID/g
